“Also recorded” adds a separate entry of the source.
What was measured:
[1] = test system: Neuro-2A-cells; assay: Puromycin selection after knock-in of the GFP-Puromycin-LDS; format: cell-based, murine
Description: FIG. 12A, B. Puromycin selection after Knock-In of the GFP-Puromycin-LDS. After the knock-out of solute carrier Slc26a4 and integration of GFP-Puromycin-Donor sequence, the cells were cultivated for seven passages until Puromycin selection was started. Different concentrations of Puromycin were applied and the cell viability was observed (A, B). […] Plate wells in rows A-C are numbered 1-4 from left to right. Wells C3-4 were empty.
Subsequent to the co-transfection of Cas9-gRNA-Plasmid and LDS in the presence of GE1741, a Puromycin-mediated selection enabled the isolation of transfected cells and facilitates the identification of donor sequence integration into the genome. For this purpose, different Puromycin concentrations were applied to the transfected cells, in the presence of GE1741. The optimal puromycin concentration should optimally kill non-transfected/non-resistant cells, while sparing cells, which received the resistance through the donor sequence.

[2] = test system: cells with which the nanoplexes are contacted; assay: Toxicity of saponin towards cells during transfection; format: cell-based
Description: It is part of the invention that the method or the use of the invention is characterized in that the nanoparticle comprises the nanoparticle-forming compound, such as a peptide, such as poly-lysine, and the nucleic acid in a mass ratio in a range of 3:1 to 15:1, preferably in a range of 3:1 to 9:1. Typically, the nanoparticle-forming compound is a poly-lysine peptide such as K16 peptide. Preferred is the method wherein the nucleic acid is a plasmid DNA, at least encoding for a Cas, preferably Cas9 (SEQ ID NO: 1), and optionally also encoding for the gRNA, and wherein the nanoparticles comprise in addition to the plasmid DNA at least one poly-lysine peptide, preferably poly-lysine K16 peptide (poly-lysine peptide consisting of sixteen lysine residues). Alternatively, the poly-lysine peptide is a peptide consisting of 8-25 lysine residues, preferably 10-20, more preferably 12-18. High in vitro transfection efficiency is obtained with the method of the invention when nanoparticles encompassing plasmid DNA, K16 peptide are prepared and applied, and are contacted with cells in the presence of a saponin selected from GE1741 and SO1861, and preferably the saponin is GE1741. Typically, the saponin concentration during transfection of the plasmid DNA into selected target cells in vitro is 1 μg/mL-5 μg/mL, preferably 2-4 μg/mL. […] Cells are typically contacted with a composition comprising the nanoplexes and a separate composition comprising the saponin, preferably GE1741. Thus, typically, the nanoparticles comprise the poly-lysine peptide and the nucleic acid, for example at least a plasmid DNA encoding for a Cas, preferably Cas9 (SEQ ID NO: 1), or a Cas with at least 90% sequence identity with this Cas9, preferably 90-99.5% sequence identity, such as 92%, 93%, 94%, 95% or 95-99%.

[3] = test system: JIMT-1 cells; assay: Transfection efficiency of PD-nanoplexes with/without saponin, flow cytometry (GFP); format: cell-based, human; details: GFP-DNA PD-nanoplexes, saponin 2 μg/ml
Protocol: After biophysical characterisation had established that nanoplexes of the large plasmid DNA and the poly-lysine peptide were formed, cell experiments were performed: transfections. […] Without wishing to be bound by any theory, the latter effect is most likely due to insufficient complexing of DNA. […] JIMT-1-cells (DSMZ no.: ACC 589) and Neuro-2A- cells (DSMZ no.: ACC 148) were transfected with nanoplexes containing relatively large Cas9-GFP-plasmid, with and without GE1741-Co-application or SO1861-Co-application at a non-toxic concentration, when the cell which is to be transfected is considered. The transfection efficiency of all transfection conditions was measured after 48 h incubation time using flow cytometry by comparison to the negative control in terms of fluorescence intensity (for example, cells contacted with the nanoparticles in the absence of saponin). The efficiency of GE1741-based transfections and SO1861-based transfections was also compared with efficiency of Lipofectamine3000™-based transfection of the nanoparticles. Transfections were performed according to protocols commonly known and applied in the field (Clochard et al., 2020; Sama et al., 2018a; Sama et al., 2017; Sama et al., 2018b). […] Transfection efficiency of GE1741-mediated PD-transfection and SO1861-mediated PD-transfections on Neuro-2A cells and JIMT-1 cells was assessed. […]

[4] = test system: Neuro-2A cells; assay: as above; format: cell-based, murine
Protocol: After biophysical characterisation had established that nanoplexes of the large plasmid DNA and the poly-lysine peptide were formed, cell experiments were performed: transfections. […] Without wishing to be bound by any theory, the latter effect is most likely due to insufficient complexing of DNA. […] JIMT-1-cells (DSMZ no.: ACC 589) and Neuro-2A- cells (DSMZ no.: ACC 148) were transfected with nanoplexes containing relatively large Cas9-GFP-plasmid, with and without GE1741-Co-application or SO1861-Co-application at a non-toxic concentration, when the cell which is to be transfected is considered. The transfection efficiency of all transfection conditions was measured after 48 h incubation time using flow cytometry by comparison to the negative control in terms of fluorescence intensity (for example, cells contacted with the nanoparticles in the absence of saponin). The efficiency of GE1741-based transfections and SO1861-based transfections was also compared with efficiency of Lipofectamine3000™-based transfection of the nanoparticles. Transfections were performed according to protocols commonly known and applied in the field (Clochard et al., 2020; Sama et al., 2018a; Sama et al., 2017; Sama et al., 2018b). […] Transfection efficiency of GE1741-mediated PD-transfection and SO1861-mediated PD-transfections on Neuro-2A cells and JIMT-1 cells was assessed. Cells were transfected with Cas9-GFP-DNA containing PD-nanoplexes, with and without GE1741 or SO1861 (final concentration of the saponin was 2 μg/ml). In Neuro-2A cells and JIMT-1 cells transection efficiency varied between 30% and 40%. Lipofectamin3000 served as reference. n≥3; a significant difference compared to the GE1741-free transfections or SO1861-free transfections was apparent, U-test, p≤0.05.
FIG. 4A, B. Transfection efficiency of saponin-mediated PD (Cas9-GFP)-transfections on Neuro-2A cells (FIG. 4A) and on JIMT-1-cells (FIG. 4B). Neuro-2A cells (A) and JIMT-1 cells (B) were transfected with GFP-DNA (i.e. a plasmid comprising the GFP DNA) bearing PD-nanoplexes or with Cas9-GFP-DNA bearing PD-nanoplexes, with and without the highest non-toxic saponin Co-administration (GE1741 Co-administration at 2 μg/ml or SO1861 Co-administration at 2 μg/ml). While GFP-DNA-transfections reached high efficiencies of around 70%, approximately 40% of all cells expressed GFP after Cas9-GFP-transfection. […] N≥3; *: significant difference compared to the saponin-free transfection (only nuclease), U-test.
JIMT-1-cells (human breast carcinoma) and Neuro-2A-cells (murine neuroblastoma) were transfected with nanoplexes, containing Cas9-GFP-plasmid, with and without saponin GE1741-co-application or saponin SO1861-co-application (that is to say, the saponin is added to the cell culture together with the addition of the nanoparticles comprising the nucleic acid that is to be transfected in the presence of the saponin), in a non-toxic concentration when the saponins are considered. The mass ratios for the peptide and the nucleic acid (plasmid DNA) in the nanoparticles were selected considering the dynamic light scattering (DLS) measurements and considering the aforementioned earlier assessed toxicity and earlier performed efficiency studies. The transfection efficiency of all transfection conditions was measured after 48 h incubation time via flow cytometry by comparison to the negative control in terms of fluorescence intensity (FIG. 4). […]

Structure (SMILES) | effect on cells (selection) ([1]; 0.5 μg/mL) | effect on cells (selection) ([1]; 1 μg/mL) | effect on cells (selection) ([1]; 2 μg/mL) | effect on cells (selection) ([1]; 2-3 μg/mL) | highest non-toxic saponin Co-administration ([2]; Neuro-2A and JIMT-1 transfections) [µg/mL] | toxic activity towards the cells ([2]; saponin concentration of 1 μg/mL-5 μg/mL, applied together with the nanoplexes) | transfection efficiency (cells expressing GFP) [3] | transfection efficiency (cells expressing GFP) ([4]; GFP-DNA PD-nanoplexes, saponin 2 μg/ml, Neuro-2A) | transfection efficiency compared with Lipofectamine3000 ([4]; nanoplexes of relatively large DNA plasmid and poly-lysine, saponin present)
COc1ccc(C[C@H](N)C(=O)N[C@H]2[C@@H](O)[C@H](n3cnc4c(N(C)C)ncnc43)O[C@@H]2CO)cc1 [Puromycin] | no significant effect | incomplete selection; also recorded: decrease of confluence | decrease of confluence | diminished nearly all cells |  |  |  |  | 
CC(=O)OC1C(C)OC(OC2C(C)OC(OC(=O)[C@]34CCC(C)(C)CC3C3=CCC5[C@@]6(C)CC[C@H](OC7OC(C(=O)O)C(O)C(OC8OCC(O)C(O)C8O)C7OC7OC(CO)C(O)C(O)C7O)[C@@](C)(C=O)C6CC[C@@]5(C)C3(C)CC4O)C(OC3OC(C)C(OC4OCC(O)C(OC5OC(CO)C(O)C(O)C5O)C4O)C(O)C3O)C2O)C(O)C1OC1OCC(O)C(O)C1O (stereo partly drawn) [SO1861] |  |  |  |  | 2 | not exhibiting toxic activity | around 70% | around 70% | higher than obtainable with current gold standard Lipofectamine3000™

From patent US20240279684A1, “CYTOSOLIC DELIVERY OF GENOME EDITING TOOLS” (SAPREME TECHNOLOGIES B.V., priority 2021, published 2024)
